According to ChEMBL document CHEMBL1201862, “PubChem BioAssay data set” (2004):
Active and inactive are the calls of the source.

How the values were obtained:
Caspase-6 = biological target: T1, Caspase-6 (Homo sapiens, UniProt P55212); assay: human caspase-6 inhibitors, dose response, biochemical, VEID-R110 fluorescence, cherry-pick (AID 720632)
T1 sequence (P55212 whole entry): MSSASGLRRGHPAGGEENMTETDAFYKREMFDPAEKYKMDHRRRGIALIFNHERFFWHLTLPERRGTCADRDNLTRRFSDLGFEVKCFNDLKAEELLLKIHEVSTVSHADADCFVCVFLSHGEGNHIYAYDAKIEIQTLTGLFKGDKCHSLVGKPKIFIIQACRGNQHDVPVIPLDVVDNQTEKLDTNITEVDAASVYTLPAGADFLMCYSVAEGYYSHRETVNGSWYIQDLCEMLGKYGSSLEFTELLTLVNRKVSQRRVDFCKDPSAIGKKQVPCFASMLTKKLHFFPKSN

Aminopeptidase N = biological target: T2, Aminopeptidase N (Plasmodium falciparum FcB1/Columbia, UniProt O96935); assay: P. falciparum M1AAP inhibitors, biochemical, fluorogenic H-Leu-NHMec substrate, 1536-well (AID 1445); parameters: species or system Plasmodium falciparum 3D7, 3D7
T2 sequence (O96935 whole entry): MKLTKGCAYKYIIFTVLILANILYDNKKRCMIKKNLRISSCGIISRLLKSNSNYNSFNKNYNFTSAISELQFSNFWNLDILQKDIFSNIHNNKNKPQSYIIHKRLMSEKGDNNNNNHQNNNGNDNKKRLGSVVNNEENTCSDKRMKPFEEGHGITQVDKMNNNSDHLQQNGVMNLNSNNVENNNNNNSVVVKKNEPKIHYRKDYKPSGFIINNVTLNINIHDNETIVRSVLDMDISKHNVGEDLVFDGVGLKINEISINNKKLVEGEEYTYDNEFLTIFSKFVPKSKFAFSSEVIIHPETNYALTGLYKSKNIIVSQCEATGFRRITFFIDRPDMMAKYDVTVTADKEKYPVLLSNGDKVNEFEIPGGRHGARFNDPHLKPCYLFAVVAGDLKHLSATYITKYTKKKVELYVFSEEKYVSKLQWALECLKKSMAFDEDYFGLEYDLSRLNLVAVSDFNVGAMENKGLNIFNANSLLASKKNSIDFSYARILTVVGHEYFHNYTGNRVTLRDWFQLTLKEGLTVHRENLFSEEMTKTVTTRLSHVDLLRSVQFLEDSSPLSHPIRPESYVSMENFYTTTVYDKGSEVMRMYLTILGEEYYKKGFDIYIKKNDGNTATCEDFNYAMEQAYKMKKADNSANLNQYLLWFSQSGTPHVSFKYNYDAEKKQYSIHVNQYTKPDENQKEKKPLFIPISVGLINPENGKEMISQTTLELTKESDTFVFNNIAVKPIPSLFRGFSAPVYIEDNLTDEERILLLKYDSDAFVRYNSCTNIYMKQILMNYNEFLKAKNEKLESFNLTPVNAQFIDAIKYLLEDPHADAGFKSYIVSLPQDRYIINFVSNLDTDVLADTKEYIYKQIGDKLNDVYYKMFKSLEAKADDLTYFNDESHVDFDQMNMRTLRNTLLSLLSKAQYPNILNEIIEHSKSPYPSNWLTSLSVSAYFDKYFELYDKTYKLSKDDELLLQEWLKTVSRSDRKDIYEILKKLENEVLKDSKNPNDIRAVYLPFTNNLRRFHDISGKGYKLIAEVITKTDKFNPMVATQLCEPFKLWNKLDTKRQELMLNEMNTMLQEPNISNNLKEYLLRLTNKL

[1] = biological target: T3, 1-phosphatidylinositol 4,5-bisphosphate phosphodiesterase beta-3 (Homo sapiens, UniProt Q01970); assay: Fluorescence-based biochemical high throughput dose response assay to identify inhibitors of phospholipase C isozymes (PLC-B3).
T3 sequence (Q01970 whole entry): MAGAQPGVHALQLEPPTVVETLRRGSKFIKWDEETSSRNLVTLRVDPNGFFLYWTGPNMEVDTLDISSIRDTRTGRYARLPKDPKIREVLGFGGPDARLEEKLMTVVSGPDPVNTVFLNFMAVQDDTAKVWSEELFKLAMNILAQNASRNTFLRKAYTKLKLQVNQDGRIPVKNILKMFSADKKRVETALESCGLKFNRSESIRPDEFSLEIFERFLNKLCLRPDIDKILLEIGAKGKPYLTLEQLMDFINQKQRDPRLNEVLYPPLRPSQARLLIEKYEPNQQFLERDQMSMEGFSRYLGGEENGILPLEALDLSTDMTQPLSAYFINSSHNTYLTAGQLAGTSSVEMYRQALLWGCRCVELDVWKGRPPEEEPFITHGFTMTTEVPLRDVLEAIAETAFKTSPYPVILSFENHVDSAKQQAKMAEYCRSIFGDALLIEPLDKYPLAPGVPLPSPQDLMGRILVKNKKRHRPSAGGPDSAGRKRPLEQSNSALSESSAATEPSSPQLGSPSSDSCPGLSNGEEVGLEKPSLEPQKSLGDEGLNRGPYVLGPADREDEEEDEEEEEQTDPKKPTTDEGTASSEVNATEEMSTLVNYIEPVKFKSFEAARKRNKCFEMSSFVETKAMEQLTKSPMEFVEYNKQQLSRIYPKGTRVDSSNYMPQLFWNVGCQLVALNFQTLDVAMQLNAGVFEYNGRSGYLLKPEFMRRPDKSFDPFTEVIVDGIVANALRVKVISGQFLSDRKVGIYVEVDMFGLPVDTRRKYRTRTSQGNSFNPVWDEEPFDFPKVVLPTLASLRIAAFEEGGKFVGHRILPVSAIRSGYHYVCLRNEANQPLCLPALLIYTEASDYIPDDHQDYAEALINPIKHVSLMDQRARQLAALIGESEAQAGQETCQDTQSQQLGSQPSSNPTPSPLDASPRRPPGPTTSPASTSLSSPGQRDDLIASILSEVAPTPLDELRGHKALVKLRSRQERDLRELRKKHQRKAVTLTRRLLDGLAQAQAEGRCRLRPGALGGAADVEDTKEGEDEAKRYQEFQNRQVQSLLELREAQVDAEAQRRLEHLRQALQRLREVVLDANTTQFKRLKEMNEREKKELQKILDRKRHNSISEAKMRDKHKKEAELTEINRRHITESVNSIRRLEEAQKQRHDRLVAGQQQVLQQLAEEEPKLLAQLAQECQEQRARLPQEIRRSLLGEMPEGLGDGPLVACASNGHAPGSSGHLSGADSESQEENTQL

[2] = biological target: T4, 1-phosphatidylinositol 4,5-bisphosphate phosphodiesterase gamma-1 (Homo sapiens, UniProt P19174); assay: Counterscreen for inhibitors of phospholipase C isozymes (PLC-B3): Fluorescence-based biochemical high throughput dose response assay to identify inhibitors of phospholipase C isozymes (PLC-gamma1).
T4 sequence (P19174 whole entry): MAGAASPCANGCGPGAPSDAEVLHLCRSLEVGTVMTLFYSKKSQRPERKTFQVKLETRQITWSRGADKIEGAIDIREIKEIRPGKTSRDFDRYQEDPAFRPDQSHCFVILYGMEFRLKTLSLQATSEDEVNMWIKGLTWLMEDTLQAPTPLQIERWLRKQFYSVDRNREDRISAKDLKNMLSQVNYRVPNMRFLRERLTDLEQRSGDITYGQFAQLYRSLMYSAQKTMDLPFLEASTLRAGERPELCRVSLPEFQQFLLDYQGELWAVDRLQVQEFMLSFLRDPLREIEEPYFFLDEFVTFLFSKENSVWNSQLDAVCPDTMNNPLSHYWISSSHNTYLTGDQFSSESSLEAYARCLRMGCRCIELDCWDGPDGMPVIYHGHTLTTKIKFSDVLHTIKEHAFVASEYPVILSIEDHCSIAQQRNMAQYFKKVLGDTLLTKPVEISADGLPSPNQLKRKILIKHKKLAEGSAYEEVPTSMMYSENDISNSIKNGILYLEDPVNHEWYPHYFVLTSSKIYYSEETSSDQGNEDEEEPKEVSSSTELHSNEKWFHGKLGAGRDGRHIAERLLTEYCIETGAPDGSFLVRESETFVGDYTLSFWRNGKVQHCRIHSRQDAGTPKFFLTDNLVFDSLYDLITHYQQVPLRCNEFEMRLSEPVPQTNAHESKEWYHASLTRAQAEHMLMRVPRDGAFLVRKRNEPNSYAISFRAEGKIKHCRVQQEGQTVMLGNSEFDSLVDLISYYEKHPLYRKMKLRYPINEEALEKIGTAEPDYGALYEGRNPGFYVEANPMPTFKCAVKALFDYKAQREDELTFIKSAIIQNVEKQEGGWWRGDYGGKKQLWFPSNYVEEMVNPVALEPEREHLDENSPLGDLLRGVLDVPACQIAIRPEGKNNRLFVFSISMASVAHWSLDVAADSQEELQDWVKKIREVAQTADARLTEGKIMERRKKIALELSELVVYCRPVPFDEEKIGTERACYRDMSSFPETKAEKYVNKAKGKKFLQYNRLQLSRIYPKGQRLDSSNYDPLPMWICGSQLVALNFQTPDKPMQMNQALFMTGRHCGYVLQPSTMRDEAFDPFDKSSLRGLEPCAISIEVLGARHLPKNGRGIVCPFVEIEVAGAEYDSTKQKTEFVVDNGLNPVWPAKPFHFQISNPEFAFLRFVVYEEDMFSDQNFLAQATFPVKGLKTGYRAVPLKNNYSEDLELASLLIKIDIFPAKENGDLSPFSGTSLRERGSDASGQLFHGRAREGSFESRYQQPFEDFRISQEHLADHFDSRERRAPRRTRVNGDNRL

[3] = NIH:OVCAR-3 ovarian cancer cell cytotoxicity, dose response, PAX8 inhibitor project, plate reader, dry powder samples (AID 743044); format: functional, cell-based
[4] = IGROV1 ovarian cancer cell cytotoxicity, dose response, PAX8 inhibitor project, plate reader, dry powder samples (AID 743043); format: functional, cell-based; conditions: IGROV-1
[5] = inhibitors of PGC1a acetylation in cells, dose response, cell-based, cherry-picked samples (AID 720514); format: functional;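 further: potency may reflect raised or lowered acetylation signal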
[6] = IOSE-T80 ovarian epithelial cell cytotoxicity, dose response, cytotoxicity control for PAX8 inhibitor project, plate reader, dry powder samples (AID 743045); format: functional, cell-based
Vero = assay: host cell cytotoxicity of antiviral hits, dose response, cytotoxicity control for West Nile virus antiviral project, secondary assay (AID 1650); format: functional; conditions: Chlorocebus sabaeus

Which results are given for `COc1ccc(/C=C2\SC(=S)NC2=O)cc1OS(=O)(=O)c1ccc(NC(C)=O)cc1`?
AC50 (Caspase-6): 17 µM (active); IC50 (Aminopeptidase N): 29.8 µM (active)

For `CC(C)(C)c1ccc(CNc2nc(-c3ccccn3)nnc2-c2ccccc2)cc1`, which IC50 [1] is on record?
Its IC50 is > 122 µM (inactive).

And the IC50 [2]?
The IC50 was > 122 µM (inactive).

What does the source list for `COc1cccc(-c2ccc([C@@H]3[C@@H]4CN(Cc5cccc(F)c5)C[C@H]3N4)cc2)c1`?
AC50 [3]: 24.4 µM (active); AC50 [4]: 34 µM (active); AC50 [5]: 4.26 µM (active); AC50 [6]: 36 µM (active)

Which results are given for `O=S(=O)(CS(=O)(=O)c1ccccc1Br)c1ccccc1Br`?
IC50 [1]: > 122 µM (inactive); IC50 [2]: 44.7 µM (inactive)

Which CC50 (Vero) does the source give for `CC12CC[C@H]3[C@@H](CCC4(O)C[C@H](O)CCC34/C=N/NC(=O)c3ccccc3O)C1(O)CCC2C1=CC(=O)OC1` (stereo partly specified) here?
The CC50 was 22.2 µM (active).
